The values below come from patent US8871753B2, “Macrocyclic compounds and their use as kinase inhibitors” (Incyte Corporation, priority 2008, dated 2014).

The conditions of series [1]: from COc1ccc(Nc2nc(Cl)ncc2Cl)cc1CCc1cncc(N)c1; cn_pd bond; 13-membered ring; Pd(OAc)2/Xantphos/Cs2CO3; 1,4-dioxane/DMF 1:1; 77.0 mM; 150.0 °C; 0.33 h.
Series [2] deals with T1, human JAK3 (a.a. 781-1124) (Homo sapiens, UniProt P52333).
T1 construct: JAK3 (a.a. 781-1124); His tag (N); made in house; host or cells: insect cells (baculovirus)
T1 sequence (P52333 781-1124): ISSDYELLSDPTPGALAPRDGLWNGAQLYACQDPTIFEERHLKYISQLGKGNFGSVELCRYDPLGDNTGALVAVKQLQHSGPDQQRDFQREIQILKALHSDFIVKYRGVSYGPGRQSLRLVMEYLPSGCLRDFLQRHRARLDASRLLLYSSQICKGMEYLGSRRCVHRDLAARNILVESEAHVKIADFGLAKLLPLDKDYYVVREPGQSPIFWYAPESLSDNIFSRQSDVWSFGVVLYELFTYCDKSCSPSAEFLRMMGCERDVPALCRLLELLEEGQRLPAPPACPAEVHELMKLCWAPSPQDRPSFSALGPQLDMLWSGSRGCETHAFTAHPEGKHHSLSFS
The series is described as follows: In vitro JAK kinase assay (HTRF, phosphorylation of a biotinylated peptide), JAK3. Type of series: biochemical. The method, boiled down:
(§1)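 Kinase activity was measured as phosphorylation of a biotinylated peptide, with ATP at 90 μM for JAK1, 30 μM for JAK2 and 3 μM for JAK3. Reactions ran 1 hr at room temperature, were stopped with EDTA plus SA-APC and Eu-Py20, and were read by HTRF after 40 minutes of antibody binding.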
(Time-resolved FRET reads energy transfer from a long-lived donor to a nearby acceptor.)

For series [3] the following is noted: cn_pd bond, 13-membered ring, Pd(OAc)2/Xantphos/Cs2CO3/Et3N.
For series [4], the target named is T2, Recombinant Human Anaplastic Lymphoma Kinase (Homo sapiens, UniProt Q9UM73).
T2 construct: purchased Invitrogen, Carlsbad, Calif
T2 sequence (Q9UM73 19-1620): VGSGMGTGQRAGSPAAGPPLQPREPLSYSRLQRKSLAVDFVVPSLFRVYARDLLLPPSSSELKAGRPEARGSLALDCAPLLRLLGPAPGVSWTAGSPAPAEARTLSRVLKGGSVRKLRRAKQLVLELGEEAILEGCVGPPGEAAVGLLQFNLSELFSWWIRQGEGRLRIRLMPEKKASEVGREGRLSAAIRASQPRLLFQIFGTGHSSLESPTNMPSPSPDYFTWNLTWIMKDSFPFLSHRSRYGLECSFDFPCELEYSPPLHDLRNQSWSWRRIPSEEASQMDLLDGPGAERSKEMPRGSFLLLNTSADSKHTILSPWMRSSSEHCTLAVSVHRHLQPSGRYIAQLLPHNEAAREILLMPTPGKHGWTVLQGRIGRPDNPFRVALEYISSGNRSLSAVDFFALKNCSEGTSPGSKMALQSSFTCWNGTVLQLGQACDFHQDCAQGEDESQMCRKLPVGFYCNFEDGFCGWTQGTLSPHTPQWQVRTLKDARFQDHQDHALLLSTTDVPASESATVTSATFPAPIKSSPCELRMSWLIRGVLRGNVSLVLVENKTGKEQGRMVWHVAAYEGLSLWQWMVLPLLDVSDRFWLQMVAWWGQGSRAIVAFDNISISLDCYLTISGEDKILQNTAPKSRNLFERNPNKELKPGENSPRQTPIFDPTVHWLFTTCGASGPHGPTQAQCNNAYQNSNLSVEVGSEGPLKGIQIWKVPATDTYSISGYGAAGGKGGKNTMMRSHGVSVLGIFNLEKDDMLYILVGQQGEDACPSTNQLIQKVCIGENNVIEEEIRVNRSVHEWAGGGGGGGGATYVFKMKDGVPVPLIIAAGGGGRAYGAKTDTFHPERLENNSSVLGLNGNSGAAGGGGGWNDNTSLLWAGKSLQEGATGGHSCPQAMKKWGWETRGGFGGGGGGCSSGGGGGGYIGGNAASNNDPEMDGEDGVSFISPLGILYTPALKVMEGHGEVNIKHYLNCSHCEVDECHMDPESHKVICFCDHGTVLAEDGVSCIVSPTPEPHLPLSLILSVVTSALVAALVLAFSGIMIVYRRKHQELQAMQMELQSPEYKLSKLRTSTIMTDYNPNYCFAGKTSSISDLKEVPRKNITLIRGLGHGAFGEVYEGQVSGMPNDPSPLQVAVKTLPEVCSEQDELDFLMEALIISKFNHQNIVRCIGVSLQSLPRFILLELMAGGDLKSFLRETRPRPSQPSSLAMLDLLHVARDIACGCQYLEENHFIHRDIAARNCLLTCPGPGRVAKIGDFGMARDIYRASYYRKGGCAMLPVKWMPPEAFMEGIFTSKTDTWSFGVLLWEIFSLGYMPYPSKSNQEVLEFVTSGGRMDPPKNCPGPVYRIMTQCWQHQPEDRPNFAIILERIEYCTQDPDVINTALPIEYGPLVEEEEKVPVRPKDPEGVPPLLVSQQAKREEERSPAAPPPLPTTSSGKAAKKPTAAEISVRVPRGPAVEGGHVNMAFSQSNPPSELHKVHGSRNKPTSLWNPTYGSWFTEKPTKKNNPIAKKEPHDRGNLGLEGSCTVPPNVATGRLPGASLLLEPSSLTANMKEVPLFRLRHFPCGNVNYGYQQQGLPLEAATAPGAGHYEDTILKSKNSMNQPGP
Kind of series: ALK HTRF kinase assay. Type of series: biochemical. As to conditions: compound at a concentration of 500 nM or 1 mM. The method, boiled down: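 IC50 was obtained from a logistic fit of signal versus log inhibitor concentration, using pre- and post-transition baselines and a Hill slope. The signal reported tyrosine phosphorylation of a biotinylated peptide by recombinant human kinase, detected as Eu-to-APC energy transfer.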

In series [5] the target is T3, human JAK2 (a.a. 828-1132) (Homo sapiens, UniProt O60674).
T3 construct: JAK2 (a.a. 828-1132); His tag (N); made in house; host or cells: insect cells (baculovirus)
T3 sequence (O60674 828-1132): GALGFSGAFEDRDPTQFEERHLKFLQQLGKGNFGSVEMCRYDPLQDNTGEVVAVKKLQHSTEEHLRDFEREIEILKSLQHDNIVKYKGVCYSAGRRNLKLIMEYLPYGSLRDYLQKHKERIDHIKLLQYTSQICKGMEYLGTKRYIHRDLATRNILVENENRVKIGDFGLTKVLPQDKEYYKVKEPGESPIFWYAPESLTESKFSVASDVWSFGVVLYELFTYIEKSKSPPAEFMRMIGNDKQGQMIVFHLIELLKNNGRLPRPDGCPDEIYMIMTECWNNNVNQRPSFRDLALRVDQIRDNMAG
Kind of series: In vitro JAK kinase assay (HTRF, phosphorylation of a biotinylated peptide), JAK2. The series is classed as biochemical. The method, boiled down: as §1

A further series has as its target TYK2 (Homo sapiens, UniProt P29597). Kind of series: TYK2 kinase inhibition (Table A1). The series is classed as biochemical.
Series [6] deals with T4, human JAK1 (a.a. 837-1142) (Homo sapiens, UniProt P23458).
T4 construct: human JAK1 (a.a. 837-1142); His tag (N); made in house; host or cells: insect cells (baculovirus)
T4 sequence (P23458 849-1154): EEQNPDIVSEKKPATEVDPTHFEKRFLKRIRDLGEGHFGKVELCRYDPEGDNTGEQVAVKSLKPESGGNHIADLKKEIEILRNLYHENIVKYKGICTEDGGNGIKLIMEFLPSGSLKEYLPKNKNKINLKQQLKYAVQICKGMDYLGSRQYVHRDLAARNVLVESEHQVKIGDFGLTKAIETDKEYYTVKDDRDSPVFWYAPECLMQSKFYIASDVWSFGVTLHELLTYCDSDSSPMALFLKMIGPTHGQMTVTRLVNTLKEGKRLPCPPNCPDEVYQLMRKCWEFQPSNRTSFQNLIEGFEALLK
The series is described as follows: In vitro JAK kinase assay (HTRF, phosphorylation of a biotinylated peptide), JAK1. The series is classed as biochemical. As to conditions: read-out: JAK1 IC50. A digest of the protocol: as §1

The test system of another series is NOD mouse. To be noted: NOD mouse model of autoimmune type 1 diabetes; cited from earlier work.
For series [7] the following is noted: patients; cited from earlier work.
Series [8] has as its system myeloid dendritic cells (DCs). As to conditions: CD40-induced maturation of myeloid DCs; cited from earlier work.
The test system of series [9] is IL-6-dependent MM cell lines. To be noted: cited from earlier work.

Read-outs that look alike come from different tables or passages of the source.

Sequence of TYK2 (P29597 whole entry): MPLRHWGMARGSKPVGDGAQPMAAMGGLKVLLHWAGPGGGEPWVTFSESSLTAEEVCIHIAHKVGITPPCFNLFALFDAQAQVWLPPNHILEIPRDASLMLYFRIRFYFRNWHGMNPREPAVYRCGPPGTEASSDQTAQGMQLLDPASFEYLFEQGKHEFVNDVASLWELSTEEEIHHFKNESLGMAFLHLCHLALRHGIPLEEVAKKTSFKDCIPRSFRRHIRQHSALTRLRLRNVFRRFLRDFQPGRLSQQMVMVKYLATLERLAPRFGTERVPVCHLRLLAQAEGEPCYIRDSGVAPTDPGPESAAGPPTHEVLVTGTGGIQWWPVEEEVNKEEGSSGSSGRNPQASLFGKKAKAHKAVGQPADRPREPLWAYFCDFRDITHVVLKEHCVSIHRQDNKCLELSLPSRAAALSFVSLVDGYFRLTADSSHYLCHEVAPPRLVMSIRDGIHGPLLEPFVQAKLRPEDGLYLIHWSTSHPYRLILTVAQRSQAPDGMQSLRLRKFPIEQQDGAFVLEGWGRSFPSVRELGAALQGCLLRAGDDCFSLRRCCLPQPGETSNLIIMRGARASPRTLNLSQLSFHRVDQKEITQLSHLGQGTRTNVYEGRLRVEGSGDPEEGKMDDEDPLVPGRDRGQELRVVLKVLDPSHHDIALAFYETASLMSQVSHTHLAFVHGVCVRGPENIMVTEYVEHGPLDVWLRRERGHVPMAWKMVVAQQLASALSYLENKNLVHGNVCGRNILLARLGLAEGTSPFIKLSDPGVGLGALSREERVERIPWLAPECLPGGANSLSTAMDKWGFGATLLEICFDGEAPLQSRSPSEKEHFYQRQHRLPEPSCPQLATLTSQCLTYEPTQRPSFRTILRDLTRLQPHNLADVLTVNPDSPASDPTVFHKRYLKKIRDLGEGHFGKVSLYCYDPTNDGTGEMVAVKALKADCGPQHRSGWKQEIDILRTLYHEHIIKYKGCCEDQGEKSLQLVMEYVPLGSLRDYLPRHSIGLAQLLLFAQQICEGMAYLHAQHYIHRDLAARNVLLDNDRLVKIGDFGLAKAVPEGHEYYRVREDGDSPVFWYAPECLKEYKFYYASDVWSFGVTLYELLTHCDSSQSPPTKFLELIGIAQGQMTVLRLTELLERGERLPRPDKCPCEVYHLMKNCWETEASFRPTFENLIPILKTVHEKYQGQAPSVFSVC

In series [1], `COc1ccc2cc1CCc1cncc(c1)Nc1ncc(Cl)c(n1)N2` came in with a ring closure, crude yield of 85%.

For the compound `Clc1cnc2nc1Nc1cccc(c1)CCc1cc(ccn1)N2` [Example C12, 6-Chloro-2,4,8,17,22-pentaazatetracyclo[14.3.1.1(3,7).1(9,13)]docosa-1(20),3(22),4,6,9(21),10,12,16,18-nonaene], the IC50 (commonly the point on the concentration scale where inhibition reaches its midpoint) in series [2] is 39 nM; in [5], 9.5 nM; against TYK2, 13 nM; in series [6], 14 nM. In addition, the ring closure, isolated yield in [3] (from Nc1ccnc(CCc2cccc(Nc3nc(Cl)ncc3Cl)c2)c1, 1,4-dioxane, 117.0 mM, 150.0 °C, 0.5 h) is 36%. Further, the “ALK % inhibition at a concentration of 500 nM or 1 mM” value (shortened to “ALK % inhibition at a concentration”) in series [4] was determined as 26%.

`Fc1cnc2nc1Nc1cccc(c1)CCc1cc(ccn1)N2` [Example C13, 6-Fluoro-2,4,8,17,22-pentaazatetracyclo[14.3.1.1(3,7).1(9,13)]docosa-1(20),3(22),4,6,9(21),10,12,16,18-nonaene]: the IC50 worked out at 154 nM in series [2], 17 nM in series [5], 16 nM at TYK2 and 70 nM in [6]. The compound also registered a ring closure, isolated yield in series [3] (from Nc1ccnc(CCc2cccc(Nc3nc(Cl)ncc3F)c2)c1, 1,4-dioxane, 120.0 mM, 150.0 °C, 0.5 h) of 41%. Further, the “ALK % inhibition at a concentration” value in [4] worked out at 18%.

For the compound `Clc1cnc2nc1Nc1cccc(c1)/C=C\c1cc(ccn1)N2` [Example C14, (14Z)-6-Chloro-2,4,8,17,22-pentaazatetracyclo[14.3.1.1(3,7).1(9,13)]docosa-1(20),3(22),4,6,9(21),10,12,14,16,18-decaene], the IC50 in [2] came to 17 nM; in [5], 2.8 nM; against TYK2, 5.7 nM; in series [6], 10 nM. Also, in series [3] (from Nc1ccnc(/C=C\c2cccc(Nc3nc(Cl)ncc3Cl)c2)c1, 1,4-dioxane, 114.0 mM, 150.0 °C, 0.5 h), the ring closure, isolated yield was determined as 35%. For the same compound, the “ALK % inhibition at a concentration” value in series [4] is 19%.

On to `Fc1cnc2nc1Nc1cccc(c1)CCc1ccnc(c1)N2` [Example C16, 6-Fluoro-2,4,8,19,22-pentaazatetracyclo[14.3.1.1(3,7).1(9,13)]docosa-1(20),3(22),4,6,9(21),10,12,16,18-nonaene], for which the half-inhibitory concentration (IC50) in series [2] was 350 nM; in series [5], 60 nM; against TYK2, 83 nM; in [6] it was over 1000 nM. Besides, the ring closure, isolated yield in series [3] (from Nc1cc(CCc2cccc(Nc3nc(Cl)ncc3F)c2)ccn1, 1,4-dioxane/DMF 1:1, 60.0 mM, 160.0 °C, 0.5 h) is 30%. Besides, in series [4], the “ALK % inhibition at a concentration” value is 14%.

As to `Clc1cnc2nc1Nc1cccc(c1)CCc1cccc(n1)N2` [Example C17, 6-Chloro-2,4,8,20,22-pentaazatetracyclo[14.3.1.1(3,7).1(9,13)]docosa-1(20),3(22),4,6,9(21),10,12,16,18-nonaene], the IC50 (in [2]; in series [5]; on TYK2; in [6]) was over 1000 nM each time. Further, the ring closure, isolated yield in [3] (from Nc1cccc(CCc2cccc(Nc3nc(Cl)ncc3Cl)c2)n1, 1,4-dioxane/DMF 1:1, 75.0 mM, 160.0 °C, 0.5 h) came to 37%. The “ALK % inhibition at a concentration” value in series [4] is reported as 1%.

Turning to `Fc1cnc2nc1Nc1cccc(c1)CCc1cccc(n1)N2` [Example C18, 6-Fluoro-2,4,8,20,22-pentaazatetracyclo[14.3.1.1(3,7).1(9,13)]docosa-1(20),3(22),4,6,9(21),10,12,16,18-nonaene], the half-maximal inhibitory concentration (IC50) (in series [2]; in series [5]; against TYK2; in series [6]) was over 1000 nM each time. In [3] (from Nc1cccc(CCc2cccc(Nc3nc(Cl)ncc3F)c2)n1, 1,4-dioxane/DMF 1:1, 60.0 mM, 160.0 °C, 1.0 h), this compound displayed a ring closure, isolated yield of 25%. In series [4], the “ALK % inhibition at a concentration” value is 3%.

In the case of `COc1cc2ncnc(Nc3ccc(O)cc3)c2cc1OC` [JANEX-1], the onset of diabetes entry in the series with NOD mouse was “delayed the onset of diabetes”.

On to `C#Cc1cccc(Nc2ncnc3cc(OCCOC)c(OCCOC)cc23)c1` [Tarceva], for which the acneiform rash result in series [7] is “induced acneiform rash with some patients”.

For the compound `COc1cc2ncnc(Nc3ccc(O)c(Br)c3)c2cc1OC` [WHI-P-154], the “CD40-induced effects (JAK3 activity, costimulatory molecule expression, IL-12 production, allogeneic stimulatory capacity)” value in [8] was “prevented these effects”.

With `CC(C)(C)c1nc2c3cc[nH]c(=O)c3c3cc(F)ccc3c2[nH]1` [pyridone 6], in series [9], the STAT3 phosphorylation entry is on record as “inhibited”; the “tumor cell proliferation and survival” value was “inhibited”.
